PubChem BioAssay AID1963853 (Molecular Pharmacology Branch, DTP, NCI, 2024)

Tested on: 266295-075-R-J1-PDC spheroid viability
Assay: Anticancer human tumor 266295-075-R-J1-PDC patient-derived head and neck squamous carcinoma cell line growth inhibition [POLQ]
Conditions: spheroids with HUVEC and MSC; for IC50: curve of first compound; for viability, T/C: stronger effect = lower value
Summary of the method: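 PDC + HUVEC + MSC complex spheroids; POLQ inhibitors ± partner drugs; top conc. at/near clinical Cmax, else 10 microM (SN-38 1 microM), half-log dilutions; 37 degrees C, 5% CO2.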
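Note: spheroids exposed to compounds for seven days before readout.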

CC(=O)O[C@H]1C(=O)[C@@]2(C)[C@H]([C@H](OC(=O)c3ccccc3)[C@]3(O)C[C@H](OC(=O)[C@H](O)[C@@H](NC(=O)c4ccccc4)c4ccccc4)C(C)=C1C3(C)C)[C@]1(OC(C)=O)CO[C@@H]1C[C@@H]2O + Cc1cccc(N(C)C(=O)C2C(O)CCN2c2nc(C)cc(C(F)(F)F)c2C#N)c1
IC50 (second compound 0.0316 µM): > 3 µM
IC50 (second compound 0.1 µM): > 3 µM
IC50 (second compound 0.316 µM): > 3 µM
IC50 (second compound 1 µM): > 3 µM
IC50 (second compound 3.16 µM): > 3 µM
IC50 (second compound 10 µM): > 3 µM
viability, T/C (second compound 0.0316 µM, first compound 0.00949 µM): 71.9%
viability, T/C (second compound 0.0316 µM, first compound 0.03 µM): 58.7%
viability, T/C (second compound 0.0316 µM, first compound 0.0949 µM): 62.5%
viability, T/C (second compound 0.0316 µM, first compound 0.3 µM): 80.5%
viability, T/C (second compound 0.0316 µM, first compound 0.949 µM): 78.7%
viability, T/C (second compound 0.0316 µM, first compound 3 µM): 60%
viability, T/C (second compound 0.1 µM, first compound 0.00949 µM): 71.7%
viability, T/C (second compound 0.1 µM, first compound 0.03 µM): 71%
viability, T/C (second compound 0.1 µM, first compound 0.0949 µM): 56.9%
viability, T/C (second compound 0.1 µM, first compound 0.3 µM): 74.7%
viability, T/C (second compound 0.1 µM, first compound 0.949 µM): 83.8%
viability, T/C (second compound 0.1 µM, first compound 3 µM): 51.8%
viability, T/C (second compound 0.316 µM, first compound 0.00949 µM): 100%
viability, T/C (second compound 0.316 µM, first compound 0.03 µM): 65.9%
viability, T/C (second compound 0.316 µM, first compound 0.0949 µM): 64%
viability, T/C (second compound 0.316 µM, first compound 0.3 µM): 69.2%
viability, T/C (second compound 0.316 µM, first compound 0.949 µM): 71%
viability, T/C (second compound 0.316 µM, first compound 3 µM): 55.4%
viability, T/C (second compound 1 µM, first compound 0.00949 µM): 70.8%
viability, T/C (second compound 1 µM, first compound 0.03 µM): 56.4%
viability, T/C (second compound 1 µM, first compound 0.0949 µM): 79.4%
viability, T/C (second compound 1 µM, first compound 0.3 µM): 68%
viability, T/C (second compound 1 µM, first compound 0.949 µM): 78.2%
viability, T/C (second compound 1 µM, first compound 3 µM): 62.7%
viability, T/C (second compound 3.16 µM, first compound 0.00949 µM): 93%
viability, T/C (second compound 3.16 µM, first compound 0.03 µM): 60.2%
viability, T/C (second compound 3.16 µM, first compound 0.0949 µM): 73.1%
viability, T/C (second compound 3.16 µM, first compound 0.3 µM): 69.1%
viability, T/C (second compound 3.16 µM, first compound 0.949 µM): 81.5%
viability, T/C (second compound 3.16 µM, first compound 3 µM): 61.9%
viability, T/C (second compound 10 µM, first compound 0.00949 µM): 83.8%
viability, T/C (second compound 10 µM, first compound 0.03 µM): 52.4%
viability, T/C (second compound 10 µM, first compound 0.0949 µM): 60.9%
viability, T/C (second compound 10 µM, first compound 0.3 µM): 68.1%
viability, T/C (second compound 10 µM, first compound 0.949 µM): 72.4%
viability, T/C (second compound 10 µM, first compound 3 µM): 62.8%
